In patent US10413583B2, “Synthetic substrates for enzymes that catalyze reactions of modified cysteines and related methods” (The University of Chicago, priority 2016, dated 2019):
Entries after “also recorded” stand apart in the source; their conditions may differ.

Key:
[1] = system: HEK293T cells; test: Epifluorescent imaging of DPP-5 (and DPP-1, DPP-4) in HEK293T cells; type: cell-based, human
Protocol: 250,000 HEK293T cells/well, 120,000 HeLa cells/well, or 100,000 HepG2 cells/well were plated in 700 μL DMEM glutamax (10% FBS+1% P/S) into 4-well chambered imaging dish (D35C4-20-1.5-N, Cellvis, Mountain View, Calif., United States of America), which were precoated with 5 μg Poly-D-lysine (30-70 KDa, Alfa Aesar, Haverhill, Mass., United States of America) for 2 h. After 20-24 h, the media was replaced by 1 μM Hoechst 33342 and DMSO/5 μM PalmB in 400 μL DMEM glutamax. After 30 min of incubation at 37° C., the cells were washed with 400 μL of Live Cell Imaging Solution and replaced by 1 μM DPP-5 with DMSO or 5 μM of PalmB in Live Cell Imaging Solution. […] For data analysis, the average fluorescence intensity per image in each experimental condition was obtained by selecting ROI in Brightfield and applying that to the corresponding DPP-5 image, average background fluorescence intensity was subtracted and data was normalized to the average fluorescence intensity of the DMSO control. […]

[2] = system: HeLa cells; test: Flow cytometry of DPP-3 in HeLa cells; type: cell-based, human; details: 1 μM inhibitor, 5 μM DPP-3, 5 min
Protocol: Cells were plated on a 10 cm dish with 10 mL of DMEM/High Glucose (10% FBS, 1% P/S, L-Glutamine, Sodium pyruvate) 36-48 hours prior to the day of experiment and maintained at 37° C., 5% CO2 so as to obtain 80-90% confluency. Cells were washed with DPBS and trypsinized with 1 mL 0.05% Trypsin. 5 mL of DMEM/High Glucose (10% FBS, L-Glutamine, Sodium pyruvate) was added and cells were spun down at 1200 rpm for 3 min. Media was discarded and cells were resuspended in 5 mL of Live Cell Imaging Solution and again spun down at 1200 rpm for 3 min. The cells pellets obtained were resuspended in 3-5 mL of Live Cell Imaging Solution and divided into 500 μL aliquots. The aliquots were treated with either 0.2% DMSO carrier or 1 μM of PalmB/ML348 or 1 μM/5 μM of ML349 inhibitor. After 30 min of incubation at room temperature, 1 μL of 2.5 mM DPP-3 in DMSO was added to each aliquot for a final concentration of 5 μM, and the solutions were mixed. After 5 min incubation at room temperature, fluorescence signal in FITC channel was measured for 10000 cells (5000 for HeLa experiments) on a LSR-Fortessa 4-15 HTS (BD digital instrument, 488 nm laser with 530/30 nm filter for FITC; BD, Franklin Lakes, N.J., United States of America). For analyzing DPP2 in HEK293T cells, the aliquots were treated with either 0.2% DMSO carrier or 2 μM of PalmB, 5 or 20 μM of ML348/ML349 and then analyzed by the protocol as mentioned above. Data was analyzed by FlowJo software version 10.0.8. For comparison of A431 starved versus non-starved, parallel 10 cm dishes of A431 cells were plated in 10 mL of DMEM (high glucose, 10% FBS, 1% P/S), and grown for 36 h. The growth media was removed, and replaced by 10 mL of either DMEM (High glucose) with 10% FBS to maintain “growth” conditions, or DMEM (High glucose) without FBS respectively for “starvation” conditions, and incubated for 14 h. After trypsinization, both plates were treated with 5 mL of DMEM (high glucose) for spinning the cells down, and further processing and analysis were performed as described above by flow cytometry.

CCCCCCCCCCCCCCCC(=O)SC[C@@H](C(=O)NC)N(C)C(=O)Oc1ccc2c(c1)Oc1cc(N3CCN(C(=O)CCC(=O)O)CC3)ccc1C21OC(=O)c2ccccc21 (stereo partly shown) [DPP-5]
probe fluorescent signal in cells ([1]; 1 μM probe for 20 minutes): bright, intracellular fluorescent signal; also recorded: robust fluorescent signal

O=C(CN1CCN(C(=O)c2ccco2)CC1)Nc1cc(C(F)(F)F)ccc1Cl [ML348]
effect of inhibitor on depalmitoylation signal measured by DPP-3 [2]: knocks down the depalmitoylation signal

CCCCCCCCCC[C@@H]1C(=O)O[C@H]1CCc1ccc(OC)c(OC)c1 [PalmB, palmostatin B]
effect of inhibitor on depalmitoylation signal measured by DPP-3 [2]: knocks down the depalmitoylation signal | fluorescent signal of DPP-5 abolished ([1]; 5 μM PalmB pretreatment, 1 μM DPP-5): about 95%
